Reference: patent US10750743B2, “Pyridazinone herbicides” (E.I. DU PONT DE NEMOURS AND COMPANY, priority 2015, dated 2020)

How the values were obtained:
Assay type in all cases: in vivo
[1] = tested on: barnyardgrass (Echinochloa crus-galli); test: Test A preemergence, directed soil spray, visual injury rating; conditions: 0 is no effect, 100 is complete control
Method in brief: (§1)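 Compounds in a surfactant-containing solvent were applied as a directed soil spray preemergence, or postemergence to plants 2-10 cm tall at the one- to two-leaf stage, in loam-sand blend. After about 10 d in the greenhouse, injury was rated visually against untreated controls on a 0-100 scale (100 = complete control).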

[2] = tested on: foxtail, giant (giant foxtail, Setaria faberii); test: as above; conditions: 0 is no effect, 100 is complete control
Method in brief: as §1

kochia (Kochia scoparia) [3] = test: as above; conditions: 0 is no effect, 100 is complete control
Method in brief: as §1

[4] = tested on: pigweed (Amaranthus retroflexus); test: as above; conditions: 0 is no effect, 100 is complete control
Method in brief: as §1

[5] = tested on: ragweed (common ragweed, Ambrosia elatior); test: as above; conditions: 0 is no effect, 100 is complete control
Method in brief: as §1

[6] = tested on: ryegrass, It. (Italian ryegrass, Lolium multiflorum); test: as above; conditions: 0 is no effect, 100 is complete control
Method in brief: as §1

[7] = tested on: barnyardgrass (Echinochloa crus-galli); test: Test B flooded paddy test, visual rating; conditions: Flood, 250 g ai/ha, applied to paddy water, rated after 13 to 15 d
Method in brief: (§2)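 Plants grown to the 2-leaf stage. At treatment, pots were flooded to 3 cm above the soil, compound was applied directly to the paddy water, and that depth was held throughout. After 13 to 15 d in the greenhouse, response was rated visually against controls on a 0 (no effect) to 100 (complete control) scale.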

[8] = tested on: ducksalad (Heteranthera limosa); test: Test B flooded paddy test, visual rating; conditions: Flood, 250 g ai/ha, applied to paddy water, rated after 13 to 15 d
Method in brief: as §2

rice (Oryza sativa) = test: Test B flooded paddy test, visual rating; conditions: Flood, 250 g ai/ha, applied to paddy water, rated after 13 to 15 d
Method in brief: as §2

[9] = tested on: sedge, umbrella (small-flower umbrella sedge, Cyperus difformis); test: Test B flooded paddy test, visual rating; conditions: Flood, 250 g ai/ha, applied to paddy water, rated after 13 to 15 d
Method in brief: as §2

[10] = tested on: barnyardgrass (Echinochloa crus-galli); test: Test A postemergence application, visual injury rating; conditions: 0 to 100 scale, 0 no effect, 100 complete control
Method in brief: as §1

[11] = tested on: blackgrass (Alopecurus myosuroides); test: as above; conditions: 0 to 100 scale, 0 no effect, 100 complete control
Method in brief: as §1

corn (Zea mays) = test: as above; conditions: for Corn plant response rating: 0 to 100 scale, 0 no effect, 100 complete control
Method in brief: as §1

[12] = tested on: foxtail, giant (giant foxtail, Setaria faberii); test: as above; conditions: for Foxtail, Giant plant response rating: 0 to 100 scale, 0 no effect, 100 complete control
Method in brief: as §1

[13] = tested on: galium (catchweed bedstraw, Galium aparine); test: as above; conditions: for Galium plant response rating: 0 to 100 scale, 0 no effect, 100 complete control
Method in brief: as §1

kochia (Kochia scoparia) [14] = test: as above; conditions: for Kochia plant response rating: 0 to 100 scale, 0 no effect, 100 complete control
Method in brief: as §1

[15] = tested on: pigweed (Amaranthus retroflexus); test: as above; conditions: for Pigweed plant response rating: 0 to 100 scale, 0 no effect, 100 complete control
Method in brief: as §1

[16] = tested on: ragweed (common ragweed, Ambrosia elatior); test: as above; conditions: for Ragweed plant response rating: 0 to 100 scale, 0 no effect, 100 complete control
Method in brief: as §1

[17] = tested on: ryegrass, It. (Italian ryegrass, Lolium multiflorum); test: as above; conditions: for Ryegrass, It. plant response rating: 0 to 100 scale, 0 no effect, 100 complete control
Method in brief: as §1

[18] = tested on: wheat (Triticum aestivum); test: as above; conditions: for Wheat plant response rating: 0 to 100 scale, 0 no effect, 100 complete control
Method in brief: as §1

[19] = 31 g ai/ha, 0 is no effect, 100 is complete control

Row | SMILES | Plant response rating (0 to 100 scale), Barnyardgrass ([1]; 125 g ai/ha) | Plant response rating (0 to 100 scale), Foxtail, Giant ([2]; 125 g ai/ha) | Plant response rating (0 to 100 scale), Kochia (kochia (Kochia scoparia) [3]; 125 g ai/ha) | Plant response rating (0 to 100 scale), Pigweed ([4]; 125 g ai/ha) | Plant response rating (0 to 100 scale), Ragweed ([5]; 125 g ai/ha) | Plant response rating (0 to 100 scale), Ryegrass, It. ([6]; 125 g ai/ha) | Barnyardgrass plant response rating (0 to 100 scale, 0 is no effect, 100 is complete control) [7] | Ducksalad plant response rating (0 to 100 scale, 0 is no effect, 100 is complete control) [8] | Rice plant response rating (0 to 100 scale, 0 is no effect, 100 is complete control) (rice (Oryza sativa)) | Sedge, Umbrella plant response rating (0 to 100 scale, 0 is no effect, 100 is complete control) [9] | Barnyardgrass plant response rating ([10]; 125 g ai/ha) | Blackgrass plant response rating ([11]; 125 g ai/ha) | Corn plant response rating (corn (Zea mays); 125 g ai/ha) | Foxtail, Giant plant response rating ([12]; 125 g ai/ha) | Galium plant response rating ([13]; 125 g ai/ha) | Kochia plant response rating (kochia (Kochia scoparia) [14]; 125 g ai/ha) | Pigweed plant response rating ([15]; 125 g ai/ha) | Ragweed plant response rating ([16]; 125 g ai/ha) | Ryegrass, It. plant response rating ([17]; 125 g ai/ha) | Wheat plant response rating ([18]; 125 g ai/ha) | also measured
1 | Cn1nc(Cl)c(O)c(-c2ccc(F)c3ccoc23)c1=O [Compound 70] | 90 | 50 | 40 | 30 | 0 | 100 | 0 | 0 | 0 | 0 | 90 | 30 | 0 | 40 | 90 | 90 | 70 | 90 | 100 | 0 | Plant response rating (0 to 100 scale), Barnyardgrass ([1]; 31 g ai/ha): 40; Plant response rating (0 to 100 scale), Foxtail, Giant ([2]; 31 g ai/ha): 10; Plant response rating (0 to 100 scale), Kochia (kochia (Kochia scoparia) [3]; 31 g ai/ha): 0; Plant response rating (0 to 100 scale), Pigweed ([4]; 31 g ai/ha): 10; Plant response rating (0 to 100 scale), Ragweed ([5]; 31 g ai/ha): 0; Plant response rating (0 to 100 scale), Ryegrass, It. ([6]; 31 g ai/ha): 70; Barnyardgrass plant response rating ([10]; 31 g ai/ha): 10; Blackgrass plant response rating ([11]; 31 g ai/ha): 0; Plant response rating (0 to 100 scale), Corn (corn (Zea mays); [19]): 0; Plant response rating (0 to 100 scale), Foxtail, Giant [12, 19]: 10; Plant response rating (0 to 100 scale), Galium [13, 19]: 50; Plant response rating (0 to 100 scale), Kochia (kochia (Kochia scoparia) [14]; [19]): 40; Plant response rating (0 to 100 scale), Pigweed [15, 19]: 10; Plant response rating (0 to 100 scale), Ragweed [16, 19]: 10; Plant response rating (0 to 100 scale), Ryegrass, It. [17, 19]: 70; Plant response rating (0 to 100 scale), Wheat [18, 19]: 0
2 | COC(=O)Oc1c(C)nn(C)c(=O)c1-c1ccc(Cl)c2oc(C)cc12 [Compound 53] | 30 | 0 | 0 | 40 | 0 | 60 | 0 | 0 | 0 | 0 | 10 | 0 | 0 | 0 | 80 | 0 | 50 | 30 | 30 | 0 | Plant response rating (0 to 100 scale), Barnyardgrass ([1]; 31 g ai/ha): 0; Plant response rating (0 to 100 scale), Foxtail, Giant ([2]; 31 g ai/ha): 0; Plant response rating (0 to 100 scale), Kochia (kochia (Kochia scoparia) [3]; 31 g ai/ha): 0; Plant response rating (0 to 100 scale), Pigweed ([4]; 31 g ai/ha): 0; Plant response rating (0 to 100 scale), Ragweed ([5]; 31 g ai/ha): 20; Plant response rating (0 to 100 scale), Ryegrass, It. ([6]; 31 g ai/ha): 0; Barnyardgrass plant response rating ([10]; 31 g ai/ha): 0; Blackgrass plant response rating ([11]; 31 g ai/ha): 0; Corn plant response rating (corn (Zea mays); 31 g ai/ha): 0; Foxtail, Giant plant response rating ([12]; 31 g ai/ha): 0; Galium plant response rating ([13]; 31 g ai/ha): 60; Kochia plant response rating (kochia (Kochia scoparia) [14]; 31 g ai/ha): 0; Pigweed plant response rating ([15]; 31 g ai/ha): 30; Ragweed plant response rating ([16]; 31 g ai/ha): 0; Ryegrass, It. plant response rating ([17]; 31 g ai/ha): 10; Wheat plant response rating ([18]; 31 g ai/ha): 0
3 | Cc1cc2c(-c3c(OC(=O)c4ccccc4)c(C)nn(C)c3=O)ccc(Cl)c2o1 [Compound 44] | 0 | 0 | 0 | 0 | 0 | 20 | 0 | 0 | 0 | 0 | 0 | 0 | 0 | 0 | 0 | 0 | 0 | 0 | 0 | 0 | Plant response rating (0 to 100 scale), Barnyardgrass ([1]; 31 g ai/ha): 0; Plant response rating (0 to 100 scale), Foxtail, Giant ([2]; 31 g ai/ha): 0; Plant response rating (0 to 100 scale), Kochia (kochia (Kochia scoparia) [3]; 31 g ai/ha): 0; Plant response rating (0 to 100 scale), Pigweed ([4]; 31 g ai/ha): 0; Plant response rating (0 to 100 scale), Ragweed ([5]; 31 g ai/ha): 0; Plant response rating (0 to 100 scale), Ryegrass, It. ([6]; 31 g ai/ha): 0; Barnyardgrass plant response rating ([10]; 31 g ai/ha): 0; Blackgrass plant response rating ([11]; 31 g ai/ha): 0; Corn plant response rating (corn (Zea mays); 31 g ai/ha): 0; Foxtail, Giant plant response rating ([12]; 31 g ai/ha): 0; Galium plant response rating ([13]; 31 g ai/ha): 0; Kochia plant response rating (kochia (Kochia scoparia) [14]; 31 g ai/ha): 0; Pigweed plant response rating ([15]; 31 g ai/ha): 0; Ragweed plant response rating ([16]; 31 g ai/ha): 0; Ryegrass, It. plant response rating ([17]; 31 g ai/ha): 0; Wheat plant response rating ([18]; 31 g ai/ha): 0
4 | CCC(=O)Oc1c(C)nn(C)c(=O)c1-c1c(C)ccc2sccc12 [Compound 31] | 10 | 10 | 20 | 90 | 20 | 90 | 0 | 0 | 0 | 0 | 10 | 50 | 20 | 10 | 90 | 90 | 90 | 70 | 100 | 20 | Plant response rating (0 to 100 scale), Barnyardgrass ([1]; 500 g ai/ha): 90; Plant response rating (0 to 100 scale), Foxtail, Giant ([2]; 500 g ai/ha): 90; Plant response rating (0 to 100 scale), Kochia (kochia (Kochia scoparia) [3]; 500 g ai/ha): 90; Plant response rating (0 to 100 scale), Pigweed ([4]; 500 g ai/ha): 100; Plant response rating (0 to 100 scale), Ragweed ([5]; 500 g ai/ha): 90; Plant response rating (0 to 100 scale), Ryegrass, It. ([6]; 500 g ai/ha): 100; Barnyardgrass plant response rating ([10]; 500 g ai/ha): 60; Blackgrass plant response rating ([11]; 500 g ai/ha): 60; Corn plant response rating (corn (Zea mays); 500 g ai/ha): 40; Foxtail, Giant plant response rating ([12]; 500 g ai/ha): 80; Galium plant response rating ([13]; 500 g ai/ha): 100; Kochia plant response rating (kochia (Kochia scoparia) [14]; 500 g ai/ha): 100; Pigweed plant response rating ([15]; 500 g ai/ha): 90; Ragweed plant response rating ([16]; 500 g ai/ha): 80; Ryegrass, It. plant response rating ([17]; 500 g ai/ha): 100; Wheat plant response rating ([18]; 500 g ai/ha): 30
